Laboratory results as given in US7893266B2, “Detection of cancer cells in vitro using sigma-2 receptor ligands as radiotracers” (Washington University, priority 2003, dated 2011).
Read-outs that look alike come from different tables or passages of the source.

Assays:
EMT-6 mammary tumors [1] = assay: Comparison with [18F]FLT in tumor-bearing mice; type: in vivo; details: 1 hr for [11C]10; 2 hr post-i.v. injection for [76Br]6 and [125I]6i
[2] = Biodistribution in EMT-6 BALB/C mice; type: in vivo; details: Balb/c, mouse, intravenous
EMT-6 mammary tumors [3] = assay: Biodistribution in EMT-6 BALB/C mice; type: in vivo
EMT-6 mammary tumors [4] = assay: Biodistribution study of [76Br]6 (Example 4), low and high dose groups; type: in vivo, Balb/C mice
From the text: This compound was studied in mature Balb/C mice that were implanted with EMT-6 mammary tumors. The mice were implanted in the nape of the neck 7 days prior to the study. The biodistribution study consisted of three groups: 1 hr low dose (≈6 μCi), 4 hr low dose and a 4 hr high dose (≈150 μCi). The % ID/g at 1 hr for tumor, brain, fat, blood and liver were 4.0±0.4, 0.25±0.02, 1.1±0.4, 2.1±0.3 and 5.4±0.4, respectively. At 4 hr for the low dose animals the values decreased to 1.2±0.2, 0.15±0.02, 0.3±0.2, 0.82±0.08 and 1.3±0.2, respectively. […] The activity injected into the high dose animals was enough to perform microPET® imaging studies. […] This initial study has shown that this σ2 receptor compound has a high uptake into EMT-6 mammary tumors and can be imaged non-invasively. (MicroPET® is a dedicated PET scanner designed for high resolution imaging of small laboratory animals. It is available from Concorde Microsystems, Inc. 10427 Cogdill Rd, Suite 500 Knoxville, Tenn. 37932 USA.)

[5] = target: T1, σ2 receptors in the breast tumors (Mus musculus, UniProt Q8VD00); assay: In vivo blocking studies with YUN 143 in tumor-bearing mice; details: blocking agent YUN 143 (1 mg/kg, i.v.); time point of highest % I.D./gram tumor
T1 construct: mature Balb/c mice that were implanted with EMT-6 mammary tumors; from tissue; host or cells: EMT-6 mammary tumours in Balb/c mice, in vivo
T1 sequence (Q8VD00 1-176): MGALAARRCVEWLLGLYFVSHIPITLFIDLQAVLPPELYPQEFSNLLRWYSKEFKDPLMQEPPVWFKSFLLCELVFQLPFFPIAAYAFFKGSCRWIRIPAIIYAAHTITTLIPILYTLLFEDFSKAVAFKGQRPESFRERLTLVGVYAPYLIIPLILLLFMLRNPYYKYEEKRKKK
From the text: The blocking agent was YUN 143, which has a high affinity for σ1 and σ2 receptors. Animals were sacrificed at the time point displaying the highest % I.D./gram tumor.
The inventors then conducted blocking studies in order to confirm that the radiotracer labeled σ2 receptors in the breast tumors. […] We have previously reported that [^18F]YUN 143 labels σ1 and σ2 receptors in breast tumor xenografts (Mach et al., 2001).

[6] = kidney, read-out: % ID per gram kidney
[7] = liver, read-out: % ID per gram liver
[8] = spleen, read-out: % ID per gram spleen

For COc1cc2c(cc1OC)CN(CCCCNC(=O)c1cc([76Br])cc(OC)c1OC)CC2 [[^76Br]6], the “tumor:background ratios compared with [18F]FLT” value (EMT-6 mammary tumors [1]) was “higher tumor:background ratios greater than that observed with [^18F]FLT”, the tissue uptake at 2 h [2, 6] was 1.85 ± 0.54 %ID/g and the tissue uptake at 4 h [2, 6] was 0.57 ± 0.12 %ID/g. For the same compound, the tissue uptake at 2 h [2, 7] was 1.67 ± 0.1 %ID/g, the tissue uptake at 4 h [2, 7] was 0.71 ± 0.08 %ID/g and the tissue uptake at 4 h ([2]; lung, read-out: % ID per gram lung) was 0.29 ± 0.03 %ID/g. For the same compound, the tissue uptake at 5 min ([2]; spleen, 5 min, read-out: % ID per gram spleen) was 12.5 ± 1.46 %ID/g, the tissue uptake at 30 min ([2]; spleen, 30 min, read-out: % ID per gram spleen) was 6.91 ± 1.22 %ID/g and the tissue uptake at 1 h ([2]; spleen, 1 hour, read-out: % ID per gram spleen) was 2.61 ± 0.62 %ID/g. The tissue uptake at 2 h [2, 8] was 0.6 ± 0.03 %ID/g, the tissue uptake at 4 h [2, 8] was 0.2 ± 0.03 %ID/g and the “ratio Tumor:blood” value (EMT-6 mammary tumors [3]; 5 min) was 2.25 ± 0.28. For the same compound, the “ratio Tumor:fat” value (EMT-6 mammary tumors [3]; 5 min) was 1.30 ± 0.24, the “ratio Tumor:heart” value (EMT-6 mammary tumors [3]; 5 min) was 0.65 ± 0.07 and the “ratio Tumor:lung” value (EMT-6 mammary tumors [3]; 5 min) was 0.19 ± 0.02. The “ratio Tumor:muscle” value (EMT-6 mammary tumors [3]; 5 min) was 1.32 ± 0.16, the “ratio Tumor:blood” value (EMT-6 mammary tumors [3]; 30 min) was 2.41 ± 0.08 and the “ratio Tumor:fat” value (EMT-6 mammary tumors [3]; 30 min) was 2.35 ± 0.34. For the same compound, the “ratio Tumor:heart” value (EMT-6 mammary tumors [3]; 30 min) was 2.48 ± 0.17, the “ratio Tumor:lung” value (EMT-6 mammary tumors [3]; 30 min) was 0.93 ± 0.09 and the “ratio Tumor:muscle” value (EMT-6 mammary tumors [3]; 30 min) was 3.70 ± 1.06. For the same compound, the “ratio Tumor:blood” value (EMT-6 mammary tumors [3]; 1 hour) was 2.53 ± 0.54, the “ratio Tumor:fat” value (EMT-6 mammary tumors [3]; 1 hour) was 5.09 ± 1.39 and the “ratio Tumor:heart” value (EMT-6 mammary tumors [3]; 1 hour) was 3.72 ± 0.72. The “ratio Tumor:lung” value (EMT-6 mammary tumors [3]; 1 hour) was 1.64 ± 0.30, the “ratio Tumor:muscle” value (EMT-6 mammary tumors [3]; 1 hour) was 6.76 ± 2.09 and the “ratio Tumor:blood” value (EMT-6 mammary tumors [3]; 2 hour) was 3.79 ± 0.99. For the same compound, the “ratio Tumor:fat” value (EMT-6 mammary tumors [3]; 2 hour) was 7.97 ± 1.95, the “ratio Tumor:heart” value (EMT-6 mammary tumors [3]; 2 hour) was 5.77 ± 0.60 and the “ratio Tumor:lung” value (EMT-6 mammary tumors [3]; 2 hour) was 2.30 ± 0.13. The “ratio Tumor:muscle” value (EMT-6 mammary tumors [3]; 2 hour) was 8.81 ± 0.91, the “ratio Tumor:blood” value (EMT-6 mammary tumors [3]; 4 hour) was 3.17 ± 0.58 and the “ratio Tumor:fat” value (EMT-6 mammary tumors [3]; 4 hour) was 20.69 ± 10.77. The “ratio Tumor:heart” value (EMT-6 mammary tumors [3]; 4 hour) was 6.24 ± 1.28, the “ratio Tumor:lung” value (EMT-6 mammary tumors [3]; 4 hour) was 2.36 ± 0.46 and the “ratio Tumor:muscle” value (EMT-6 mammary tumors [3]; 4 hour) was 9.48 ± 2.14. The “% ID per gram blood” value (EMT-6 mammary tumors [3]; 5 min) was 2.12 ± 0.20 % ID per gram, the “% ID per gram blood” value (EMT-6 mammary tumors [3]; 30 min) was 2.20 ± 0.24 % ID per gram and the “% ID per gram blood” value (EMT-6 mammary tumors [3]; 1 hour) was 1.60 ± 0.22 % ID per gram. For the same compound, the “% ID per gram blood” value (EMT-6 mammary tumors [3]; 2 hour) was 0.46 ± 0.07 % ID per gram, the “% ID per gram blood” value (EMT-6 mammary tumors [3]; 4 hour) was 0.21 ± 0.03 % ID per gram and the “% ID per gram bone” value (EMT-6 mammary tumors [3]; 5 min) was 3.10 ± 0.67 % ID per gram. The “% ID per gram bone” value (EMT-6 mammary tumors [3]; 30 min) was 2.76 ± 0.58 % ID per gram, the “% ID per gram bone” value (EMT-6 mammary tumors [3]; 1 hour) was 1.38 ± 0.09 % ID per gram and the “% ID per gram bone” value (EMT-6 mammary tumors [3]; 2 hour) was 0.56 ± 0.20 % ID per gram. The “% ID per gram bone” value (EMT-6 mammary tumors [3]; 4 hour) was 0.12 ± 0.03 % ID per gram, the “% ID per gram brain” value (EMT-6 mammary tumors [3]; 5 min) was 1.60 ± 0.15 % ID per gram and the “% ID per gram brain” value (EMT-6 mammary tumors [3]; 30 min) was 0.41 ± 0.06 % ID per gram. The “% ID per gram brain” value (EMT-6 mammary tumors [3]; 1 hour) was 0.17 ± 0.02 % ID per gram, the “% ID per gram brain” value (EMT-6 mammary tumors [3]; 2 hour) was 0.05 ± 0.00 % ID per gram and the “% ID per gram brain” value (EMT-6 mammary tumors [3]; 4 hour) was 0.03 ± 0.00 % ID per gram. For the same compound, the “% ID per gram fat” value (EMT-6 mammary tumors [3]; 5 min) was 3.78 ± 0.97 % ID per gram, the “% ID per gram fat” value (EMT-6 mammary tumors [3]; 30 min) was 2.27 ± 0.16 % ID per gram and the “% ID per gram fat” value (EMT-6 mammary tumors [3]; 1 hour) was 0.81 ± 0.16 % ID per gram. The “% ID per gram fat” value (EMT-6 mammary tumors [3]; 2 hour) was 0.22 ± 0.05 % ID per gram, the “% ID per gram fat” value (EMT-6 mammary tumors [3]; 4 hour) was 0.04 ± 0.02 % ID per gram and the “% ID per gram heart” value (EMT-6 mammary tumors [3]; 5 min) was 7.31 ± 0.70 % ID per gram. For the same compound, the “% ID per gram heart” value (EMT-6 mammary tumors [3]; 30 min) was 2.15 ± 0.30 % ID per gram, the “% ID per gram heart” value (EMT-6 mammary tumors [3]; 1 hour) was 1.08 ± 0.07 % ID per gram and the “% ID per gram heart” value (EMT-6 mammary tumors [3]; 2 hour) was 0.30 ± 0.03 % ID per gram. The “% ID per gram heart” value (EMT-6 mammary tumors [3]; 4 hour) was 0.11 ± 0.02 % ID per gram, the “% ID per gram kidney” value (EMT-6 mammary tumors [3]; 5 min) was 31.20 ± 2.92 % ID per gram and the “% ID per gram kidney” value (EMT-6 mammary tumors [3]; 30 min) was 18.51 ± 2.66 % ID per gram. The “% ID per gram kidney” value (EMT-6 mammary tumors [3]; 1 hour) was 10.81 ± 1.72 % ID per gram, the “% ID per gram liver” value (EMT-6 mammary tumors [3]; 5 min) was 10.99 ± 0.29 % ID per gram and the “% ID per gram liver” value (EMT-6 mammary tumors [3]; 30 min) was 8.85 ± 0.52 % ID per gram. For the same compound, the “% ID per gram liver” value (EMT-6 mammary tumors [3]; 1 hour) was 4.58 ± 0.36 % ID per gram, the “% ID per gram lung” value (EMT-6 mammary tumors [3]; 5 min) was 24.64 ± 2.74 % ID per gram and the “% ID per gram lung” value (EMT-6 mammary tumors [3]; 30 min) was 5.81 ± 1.12 % ID per gram. For the same compound, the “% ID per gram lung” value (EMT-6 mammary tumors [3]; 1 hour) was 2.45 ± 0.17 % ID per gram, the “% ID per gram lung” value (EMT-6 mammary tumors [3]; 2 hour) was 0.74 ± 0.04 % ID per gram and the “% ID per gram muscle” value (EMT-6 mammary tumors [3]; 5 min) was 3.62 ± 0.27 % ID per gram. For the same compound, the “% ID per gram muscle” value (EMT-6 mammary tumors [3]; 30 min) was 1.54 ± 0.49 % ID per gram, the “% ID per gram muscle” value (EMT-6 mammary tumors [3]; 1 hour) was 0.61 ± 0.11 % ID per gram and the “% ID per gram muscle” value (EMT-6 mammary tumors [3]; 2 hour) was 0.20 ± 0.03 % ID per gram. For the same compound, the “% ID per gram muscle” value (EMT-6 mammary tumors [3]; 4 hour) was 0.07 ± 0.01 % ID per gram, the “% ID per gram tumor” value (EMT-6 mammary tumors [3]; 5 min) was 4.78 ± 0.78 % ID per gram and the “% ID per gram tumor” value (EMT-6 mammary tumors [3]; 30 min) was 5.31 ± 0.62 % ID per gram. The “% ID per gram tumor” value (EMT-6 mammary tumors [3]; 1 hour) was 3.98 ± 0.58 % ID per gram, the “% ID per gram tumor” value (EMT-6 mammary tumors [3]; 2 hour) was 1.71 ± 0.17 % ID per gram and the “% ID per gram tumor” value (EMT-6 mammary tumors [3]; 4 hour) was 0.68 ± 0.15 % ID per gram. For the same compound, the “% ID/g for the 4 hr high dose animals versus low dose” value (EMT-6 mammary tumors [4]; 4 hr, high dose (≈150 μCi)) was “not significantly different”, the “% ID/g blood” value (EMT-6 mammary tumors [4]; 1 hr, low dose (≈6 μCi)) was 2.1±0.3 % ID/g and the “% ID/g blood” value (EMT-6 mammary tumors [4]; 4 hr, low dose) was 0.82±0.08 % ID/g. For the same compound, the “% ID/g brain” value (EMT-6 mammary tumors [4]; 1 hr, low dose (≈6 μCi)) was 0.25±0.02 % ID/g, the “% ID/g brain” value (EMT-6 mammary tumors [4]; 4 hr, low dose) was 0.15±0.02 % ID/g and the “% ID/g fat” value (EMT-6 mammary tumors [4]; 1 hr, low dose (≈6 μCi)) was 1.1±0.4 % ID/g. The “% ID/g fat” value (EMT-6 mammary tumors [4]; 4 hr, low dose) was 0.3±0.2 % ID/g, the “% ID/g liver” value (EMT-6 mammary tumors [4]; 1 hr, low dose (≈6 μCi)) was 5.4±0.4 % ID/g and the “% ID/g liver” value (EMT-6 mammary tumors [4]; 4 hr, low dose) was 1.3±0.2 % ID/g. For the same compound, the “% ID/g tumor” value (EMT-6 mammary tumors [4]; 1 hr, low dose (≈6 μCi)) was 4.0±0.4 % ID/g, the “% ID/g tumor” value (EMT-6 mammary tumors [4]; 4 hr, low dose) was 1.2±0.2 % ID/g and the “in vivo blocking study result” value [5] was “consistent with the labeling of σ2 receptors in vivo”.
